Consider five molecules from article PMC12441834, “Highly Potent and Subtype-Selective Sperm-Specific Potassium Channel SLO3 Inhibitors Display High Tissue Exposure in the Murine Female Reproductive Tract” (ACS Pharmacology & Translational Science, 2025).

One data set addresses T1, hERG (Homo sapiens, UniProt Q12809).
T1 construct: expressed in transfected cells
The data set is described as follows: hERG patch clamp electrophysiology (HEK-293-hERG). The format is cell-based. As to conditions: for selectivity ratio: pH 7.35, hERG IC50 / hSLO3 IC50, read-out: hERG selectivity [fold] (SLO3 versus hERG); for pIC50: whole-cell patch clamp, HEK-293-hERG. As for the experimental part:
Whole-cell patch-clamp electrophysiology was used to record hERG currents from a stably transfected monoclonal cell line expressing human hERG. The HEK-293-hERG cell line was generously provided by Dr. David Weaver (Vanderbilt University). Cells were cultured in a 5% CO2 incubator at 37 °C, dissociated with 0.25% Trypsin-EDTA, and seeded onto 12 mm circular coverslips (Electron Microscopy Sciences, PA, USA) for same-day whole-cell patch-clamp recordings. hERG currents were recorded at room temperature by using an AxoPatch 200B amplifier with Clampex 10.7 software (Molecular Devices, USA). The voltage-clamp protocol consisted of a 4-s step to +30 mV from a −80 mV holding potential, followed by a 4-s step to −40 mV, repeated every 10 s. Data were sampled at 5 kHz and filtered at 1 kHz. Patch pipettes, pulled from 1.5 mm OD thin-walled capillaries (Warner Instruments, MA, USA) using a Sutter P-1000 puller (Sutter Instrument, CA, USA), had resistances of 2–3 MΩ when filled with intracellular solution containing (mM): 135 KCl, 10 HEPES, 1 EGTA, 2 MgCl2, 2 Na2ATP (pH 7.35, adjusted with KOH). The extracellular solution contained (mM): 135 NaCl, 5 KCl, 2 CaCl2, 1 MgCl2, 5 Glucose, 10 HEPES, and 10 Sucrose (pH 7.35, adjusted with NaOH). After establishing stable baseline hERG currents, cells were perfused with compounds at concentrations of 0.03–30 μM until response saturation (typically 2–8 min). Recordings concluded with a 10 μM Quinidine solution to isolate Quinidine-sensitive currents, with compound responses expressed as fractions of this current. Peak “tail” current amplitudes at the beginning of −40 mV steps were analyzed using Clampfit 11.2 (Molecular Devices). IC50 values were calculated by fitting the Hill equation to concentration–response curves (CRCs) using the built-in Y = Bottom + (Top – Bottom)/(1 + (IC50/X)^HillSlope) model (nonlinear regression fit: [Inhibitor] vs response – Variable slope (four parameters)) in GraphPad Prism 10.4 (GraphPad Software).

A further data set concerns the target T2, hSLO2.1 (Homo sapiens, UniProt Q6UVM3).
T2 construct: expressed in transfected cells; host or cells: HEK
T2 sequence (Q6UVM3 1-1135): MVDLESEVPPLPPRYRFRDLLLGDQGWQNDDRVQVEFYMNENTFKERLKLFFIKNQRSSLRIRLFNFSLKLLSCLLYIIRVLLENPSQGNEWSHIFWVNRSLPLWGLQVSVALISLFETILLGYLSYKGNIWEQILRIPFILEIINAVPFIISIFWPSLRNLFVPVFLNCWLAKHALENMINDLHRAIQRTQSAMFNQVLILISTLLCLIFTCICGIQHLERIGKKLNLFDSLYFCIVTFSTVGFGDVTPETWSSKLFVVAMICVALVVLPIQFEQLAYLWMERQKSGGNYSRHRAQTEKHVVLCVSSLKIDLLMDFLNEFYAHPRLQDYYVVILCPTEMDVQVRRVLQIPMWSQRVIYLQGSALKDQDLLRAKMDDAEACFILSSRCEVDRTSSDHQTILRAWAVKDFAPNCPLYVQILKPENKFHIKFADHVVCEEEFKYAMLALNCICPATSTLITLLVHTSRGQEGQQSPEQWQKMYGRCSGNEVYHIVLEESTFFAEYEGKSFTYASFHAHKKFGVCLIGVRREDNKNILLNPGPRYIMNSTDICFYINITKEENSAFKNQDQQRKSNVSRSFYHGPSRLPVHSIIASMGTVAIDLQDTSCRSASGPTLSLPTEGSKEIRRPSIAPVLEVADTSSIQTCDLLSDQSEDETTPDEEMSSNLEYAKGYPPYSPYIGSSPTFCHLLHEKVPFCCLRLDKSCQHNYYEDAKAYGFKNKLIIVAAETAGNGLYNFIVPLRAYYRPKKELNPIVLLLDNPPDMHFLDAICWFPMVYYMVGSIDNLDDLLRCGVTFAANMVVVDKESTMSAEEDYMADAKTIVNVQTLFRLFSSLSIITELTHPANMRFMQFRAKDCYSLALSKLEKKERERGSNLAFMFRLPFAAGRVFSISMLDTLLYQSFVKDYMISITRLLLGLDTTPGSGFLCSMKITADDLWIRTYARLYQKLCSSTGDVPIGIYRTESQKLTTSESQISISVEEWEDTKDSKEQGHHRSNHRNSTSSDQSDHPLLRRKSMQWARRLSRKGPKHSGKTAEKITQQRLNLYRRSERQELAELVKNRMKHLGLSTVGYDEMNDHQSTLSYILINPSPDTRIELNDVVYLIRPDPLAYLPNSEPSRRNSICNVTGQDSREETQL
The data set can be described thus: SLO2.1 inhibition in HEK cells. The format is cell-based. Particulars: HEK293; read-out: HEK hSLO2.1 % inhib. 10 μM.

Setting [1] is: human, HEK-293 cells stably expressing hERG.

pIC50: −log10 of the molar value.

T1 sequence (Q12809 whole entry): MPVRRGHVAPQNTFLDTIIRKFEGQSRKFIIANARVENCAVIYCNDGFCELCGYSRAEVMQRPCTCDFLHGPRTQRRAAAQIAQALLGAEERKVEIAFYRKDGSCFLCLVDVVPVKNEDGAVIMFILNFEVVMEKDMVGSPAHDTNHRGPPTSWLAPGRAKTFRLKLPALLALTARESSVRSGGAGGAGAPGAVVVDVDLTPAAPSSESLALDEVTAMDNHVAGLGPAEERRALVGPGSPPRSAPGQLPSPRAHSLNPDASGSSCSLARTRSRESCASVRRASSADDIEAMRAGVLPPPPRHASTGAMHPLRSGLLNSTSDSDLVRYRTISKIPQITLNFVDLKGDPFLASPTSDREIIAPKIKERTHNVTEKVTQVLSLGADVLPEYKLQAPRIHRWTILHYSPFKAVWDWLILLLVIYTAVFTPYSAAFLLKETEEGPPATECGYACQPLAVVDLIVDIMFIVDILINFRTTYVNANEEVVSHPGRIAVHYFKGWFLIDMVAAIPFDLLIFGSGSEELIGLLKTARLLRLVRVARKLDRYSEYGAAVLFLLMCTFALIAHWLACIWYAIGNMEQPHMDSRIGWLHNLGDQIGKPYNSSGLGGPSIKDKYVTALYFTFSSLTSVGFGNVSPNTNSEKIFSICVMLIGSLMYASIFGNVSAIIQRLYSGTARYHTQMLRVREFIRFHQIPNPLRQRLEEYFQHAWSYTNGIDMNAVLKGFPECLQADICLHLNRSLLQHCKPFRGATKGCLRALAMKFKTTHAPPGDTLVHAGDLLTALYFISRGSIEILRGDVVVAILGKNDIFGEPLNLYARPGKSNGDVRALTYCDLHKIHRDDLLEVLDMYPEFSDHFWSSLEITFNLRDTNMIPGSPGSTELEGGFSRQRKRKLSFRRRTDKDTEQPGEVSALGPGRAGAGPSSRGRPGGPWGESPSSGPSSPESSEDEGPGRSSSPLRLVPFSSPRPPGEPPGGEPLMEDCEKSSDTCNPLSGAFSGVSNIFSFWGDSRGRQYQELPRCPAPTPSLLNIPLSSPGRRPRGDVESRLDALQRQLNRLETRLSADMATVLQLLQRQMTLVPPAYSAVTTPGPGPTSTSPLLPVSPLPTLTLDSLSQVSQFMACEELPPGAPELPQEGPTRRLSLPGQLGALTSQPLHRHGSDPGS

By pIC50 is commonly meant the IC50 on a negative log10 scale, so that one unit is a factor of ten. Higher therefore signals a small IC50. For `O=C(c1ccc(OCc2ccc(OC(F)(F)F)cc2)cc1)N1CCN(c2ccc(C(F)(F)F)cn2)CC1` [VU6032735], the selectivity ratio on hERG (setting [1]) was 172. The molecule also gave a pIC50 at hERG of 4.55. On hSLO2.1, the inhibition at 10 µM was 22%.

On to `Cc1cc(Cl)cc2sc(OC3CCN(C(=O)CCCS(=O)(=O)c4cccc(Br)c4)CC3F)nc12` (centres unmarked) [VU6045330], for which, at hERG (setting [1]), the selectivity ratio stood at 555. In addition, the pIC50 against hERG was 4.13. The inhibition at 10 µM on hSLO2.1 worked out at 22%.

Take `Cc1cc(Cl)cc2sc(O[C@H]3CCN(C(=O)CCCS(=O)(=O)c4cccc(Br)c4)C[C@H]3F)nc12` [VU6047606]: the pIC50 against hERG (human, HEK-293 cells stably expressing hERG, pH 7.35) is 4.90; at hERG, 4.92. Moreover, at hSLO2.1, the inhibition at 10 µM came out at 4%.

With `Cc1cc(Cl)cc2sc(O[C@@H]3CCN(C(=O)CCCS(=O)(=O)c4cccc(Br)c4)C[C@H]3F)nc12` [VU6047607], the pIC50 at hERG is 4.77.

At hERG, `Cc1cc(Cl)cc2sc(O[C@H]3CCN(C(=O)CCCS(=O)(=O)c4cccc(Br)c4)C[C@@H]3F)nc12` [VU6047609] showed a pIC50 of 4.25.
